Test results from patent publication US11952610B2, “Digital microbiology” (priority 2016, dated 2024).
Converted amounts (≈) assume the structure as drawn. Where two headings read alike, the source gives them in different places.

Tests used:
MRSA ATCC BAA 2312 = experiment: Droplets with labeled anti-PBP2a antibody, BSA +/- cefoxitin: growth and labeling; format: cell-based, Staphylococcus aureus; settings: 3 h at 37° C.
Method: In another experiment, an anti-PBP2a antibody (Biosource clone M0071933) that recognizes PBP2a indicative of the resistance against methicillin in Staphylococcus aureus (SA) was labeled using Kit Lynx LNK174PETR (Abd Serotec). […] After incubation at 37° C. for 3 hours, the samples were read using the ZOE™ Fluorescent Cell Imager (Bio-Rad Laboratories). The tables below show growth (visible) and labeling (fluorescence) obtained for the tested strains of MSSA and MRSA.

S. aureus ATCC®43300™ [1] = experiment: Antimicrobial susceptibility testing in water-in-oil droplets, strain with or without induction of resistance; settings: for MIC: Staphylococcus aureus
Method: They comprised Escherichia coli (ATCC®25922™), Staphylococcus aureus (ATCC®29212™), Enterococcus faecalis (ATCC®29212™) and Candida albicans (ATCC®24433™). […] This strain is known to carry an heterogeneous resistance phenotype was also used with or without induction with cephalosporins.
Each strain was stored as −80° C. frozen stock. Except when indicated, after overnight cultures in Trypto-casein-soy broth (TCS; Bio-Rad, Marnes 1a Coquette, France), all bacterial strains were started from the same adjusted turbidity which was equivalent to 1:100 of a 0.5 McFarland in TCS. For the Candida albicans, the starting turbidity was equivalent to a 1:10 of a 0.1 McFarland.
Droplets were prepared according to the manufacturer instructions (Bio-Rad) using QX200™ Droplet Generation Oil for EvaGreen (+surfactant) with the mixing parameters adjusted for sample volume and approximate number of microorganisms. Turbidity adjusted cultures were diluted in aqueous-phase reagents with a known concentration of antibiotic or antifungal agents in a 1:1 ratio of TCS culture to aqueous phase reagents (v/v, 10 μL/10 μL).
As soon as the droplets were prepared, the cartridges, protected by an adhesive film, were directly incubated at 37° C. (at 30° C. for the C. albicans).
After 4 and 6 hours of incubation, droplets were pipetted and introduced into cell counting slides (Bio-Rad). The microorganisms were then observed in the droplets using a microscope (objective 100× or 400×). The approximate counts of droplets carrying microorganisms as their growth inside the droplets were reported.
The minimal inhibitory concentration (MIC) was determined as the lowest concentration of an antimicrobial agent that prevents visible growth of a microorganism (i.e. a total absence of bacteria or a total absence of fungal growth observable in droplets using the microscope).

S. aureus ATCC®29213™ [2] = experiment: Antimicrobial susceptibility testing in water-in-oil droplets, microscope reading; format: cell-based, Staphylococcus aureus; settings: for Growth in droplets (observation in words): 2 mg/L
Method: (at 30° C. for the C. albicans).

S. aureus ATCC®29213™ [3] = settings: cited from earlier work
S. aureus ATCC®43300™ [4] = settings: cited from earlier work
bacteria or yeast = experiment: Turbidity of a culture over time in the presence and absence of PI; format: cell-based; settings: presence vs absence of PI
Method: FIGS. 13A and 13B are a sample of SA+PI without FOX after 6 h of incubation. FIGS. 14A-14C are SA+PI+0.25 mg/L FOX after 6 h of incubation. FIGS. 15A-15C are SA+PI+0.5 mg/L FOX after 6 h of incubation. FIGS. 16A-16C are SA+PI+4 mg/L FOX after 6 h of incubation. PI is excluded from viable cells and penetrates the cell membranes of dead or dying cells. […] Intercalating agents are considered toxic for cell growth because they react with DNA, blocking the replication of the cells.

[5] = system: Mucor racemosus CECT 20821; experiment: Inhibition of mold growth outside the droplet aqueous phase, antifungal in oil phase; format: cell-based; settings: YCG broth, 48 hours
Method: (§1) Usual foodborne mold strains were grown until the sporulation state (usually for 5 to 7 days) on the appropriate culture medium at 28° C. Spores were then scraped into 0.05% Tween 80 sterile solution. The collected suspensions were filtered on several layers of gauze compressed to eliminate most of the hyphae and mycelium fragments. When necessary, the suspensions were kept under stirring in the dark and at room temperature before the filtration step to ensure optimal spore release from the fungal structures. The spore concentration was determined in a hemocytometer chamber and/or by plating on agar Petri plates.
(§2) The suspensions were then centrifuged for 5 minutes at 10.000 rpm and the supernatants discarded. The pellets were resuspended with the appropriate volume of YGC broth containing 30% of glycerol and the aliquots were stored at −20° C. for up to 6 months.
(§3) Aliquots were thawed at room temperature and washed once in YGC broth to remove glycerol. The spores were then diluted to the concentration of 10^5 spores/mL in YGC broth containing 5% of Pluronic F68 surfactant.
(§4) Dicloran stock solution was prepared at 40 mg/mL in acetone. The stock solution was then diluted to produce working solutions according to table below.
(§5) A volume of 10 μL of the appropriate working solution was then added to 2 mL of Oil for Eva Green to reach the targeted final concentrations (0.5% v/v) (see the table below).
(§6) For droplet generation using the QX200™ Droplet generator, the ‘sample’ and ‘oil’ wells of a DG8 cartridge were respectively filled with […], of the prepared spore suspension (with or without CFDA) and 70 μL of the Oil for Eva Green (with or without Dicloran). After the generation process, the droplet emulsions (30-35 μL/well) were transferred to a 96-well Eppendorf plate and placed at 28° C. for 24 to 48 hours.

[6] = system: Erotium rubrum CECT 20807; experiment: as above; format: cell-based
Method: as §1, §2, §3, §4, §5, §6

[7] = system: usual foodborne mold strains; experiment: as above; format: cell-based; settings: 40 to 100 mg/L in the oil for EvaGreen, 28° C., 24 to 48 hours
Method: as §1, §2, §3, §4, §5, §6

[8] = system: Aspergillus restrictus CECT 20807; experiment: as above; format: cell-based; settings: YCG broth
[9] = system: Fusarium graminearum DSM 1096; format: cell-based; settings: 100 mg/L in the oil phase, YCG broth, 48 hours
[10] = system: Penicillium hirsutum ATCC 16025; experiment: Inhibition of mold growth outside the droplet aqueous phase, antifungal in oil phase; format: cell-based; settings: 80 mg/L in the oil phase, YCG broth, 24 hours

## CO[C@@]1(NC(=O)Cc2cccs2)C(=O)N2C(C(=O)O)=C(COC(N)=O)CS[C@@H]21 [Cefoxitin]
MRSA ATCC BAA 2312; BSA 0 + FOX 2 mg/L
  Growth (visible): Growth +<
MRSA ATCC BAA 2312; BSA 2.5% + FOX 2 mg/L
  Growth (visible): Growth +>
S. aureus ATCC®43300™ [1]; 4 mg/L, 4 h w/o induction
  Growth in droplets (observation in words): No growth
S. aureus ATCC®43300™ [1]; 4 mg/L, 4 h with induction
  Growth in droplets (observation in words): Limited growth
S. aureus ATCC®43300™ [1]; 4 mg/L, 6 h w/o induction
  Growth in droplets (observation in words): Limited growth (few
S. aureus ATCC®43300™ [1]; 4 mg/L, 6 h with induction
  Growth in droplets (observation in words): Limited growth
S. aureus ATCC®43300™ [1]; 8 mg/L, 4 h with induction
  Growth in droplets (observation in words): Limited growth in few
S. aureus ATCC®43300™ [1]; 8 mg/L, 6 h w/o induction
  Growth in droplets (observation in words): No growth
S. aureus ATCC®43300™ [1]; 8 mg/L, 6 h with induction
  Growth in droplets (observation in words): 1 droplet with cells
S. aureus ATCC®43300™ [1]; 16 mg/L, 4 h with induction
  Growth in droplets (observation in words): Very limited growth
S. aureus ATCC®43300™ [1]; 16 mg/L, 6 h with induction
  Growth in droplets (observation in words): No growth
S. aureus ATCC®43300™ [1]; 32 mg/L, 4 h with induction
  Growth in droplets (observation in words): No growth
S. aureus ATCC®43300™ [1]; ATCC43300, read-out: Observed MIC, using non induced strain
  MIC: 2 to 4 µg/mL (≈ 4.68 to 9.36 µM)
S. aureus ATCC®43300™ [1]; ATCC43300, read-out: Observed MIC, with induced strain
  MIC: 16 to 32 µg/mL (≈ 37.4 to 74.9 µM)
S. aureus ATCC®29213™ [2]; 0.5 mg/L, reading time 4 h
  Growth in % of droplets: 20-30% of droplets
S. aureus ATCC®29213™ [2]; 1 mg/L, reading time 4 h
  Growth in % of droplets: ~20% of droplets
S. aureus ATCC®29213™ [2]; 1 mg/L, reading time 6 h
  Growth in % of droplets: Growth in <50% of
S. aureus ATCC®29213™ [2]; reading time 4 h
  Growth in droplets (observation in words): No growth
S. aureus ATCC®29213™ [2]; reading time 6 h
  Growth in droplets (observation in words): No growth
S. aureus ATCC®29213™ [2]; Staphylococcus aureus, ATCC29213, droplets at 37° C., read after 4 and 6 h, read-out: Observed MIC
  MIC: 2 µg/mL (≈ 4.68 µM)
S. aureus ATCC®29213™ [3]
  Expected MIC (CLSI): 1 to 4 µg/mL
S. aureus ATCC®43300™ [4]
  Expected MIC (JCM): 16 to 32 µg/mL

## CC[N+](C)(CC)CCC[n+]1c(-c2ccccc2)c2cc(N)ccc2c2ccc(N)cc21.[I-].[I-] [PI, propidium iodide]
Bacteria or yeast
  Impact on growth of bacteria or yeast: only a limited impact

## Nc1c(Cl)cc([N+](=O)[O-])cc1Cl [dicloran, 2,6-dichloro-4-nitroaniline]
[5]; 40 mg/L in the oil phase
  Mold growth outside the aqueous phase: inhibition of mold growth outside the aqueous phase
[5]; 60 mg/L in the oil phase
  Mold growth outside the aqueous phase: inhibition of mold growth outside the aqueous phase
[6]; 60 mg/L in the oil phase, YCG broth, 24 hours
  Mold growth outside the aqueous phase: inhibition of mold growth outside the aqueous phase
[6]; 80 mg/L in the oil phase, 5,6 carboxyfluorescein diacetate (25 mg/L) in the broth
  Mold growth outside the aqueous phase: inhibition of Erotium rubrum CECT 20807 growth outside the aqueous phase
[6]; 80 mg/L in the oil phase, YCG broth, 48 hours
  Mold growth outside the aqueous phase: inhibition of mold growth outside the aqueous phase
[7]
  Hyphae spreading and mold growth outside the droplet: the hyphae spreading was inhibited and mold growth was confined within the droplet
[8]; 80 mg/L in the oil phase, 24 hours
  Mold growth outside the aqueous phase: inhibition of mold growth outside the aqueous phase
[8]; 100 mg/L in the oil phase, 48 hours
  Mold growth outside the aqueous phase: inhibition of mold growth outside the aqueous phase
[9]
  Mold growth outside the aqueous phase: inhibition of mold growth outside the aqueous phase
[10]
  Mold growth outside the aqueous phase: inhibition of mold growth outside the aqueous phase
